Source: US7473688B2, “Indolobenzazepine HCV NS5B inhibitors” (Bristol-Myers Squibb Company, priority 2005, dated 2009)
Where two headings read alike, the source gives them in different places.

What was measured:
HCV NS5B = biological target: T1, HCV NS5B (Hepatitis C virus genotype 1b, UniProt Q9WMX2); assay: HCV NS5B RdRp enzyme assay (preincubation protocol); format: biochemical; conditions: read-out: IC50*
T1 construct: The protein was expressed with an 18 amino acid C-terminal truncation to enhance the solubility; made in house; host or cells: E. coli BL21 (DE3), pET21a
Method in brief: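 Preincubation format: enzyme (14 nM, genotype 1b, 18-residue C-terminal truncation) meets diluted compound first; reaction started with bead-bound biotinylated dT12 primer, polyA template 0.2 nM and 0.29 μM 3H-UTP. Run 4 h, 30 °C in Hepes pH 7.5; scintillation proximity signal; IC50 fitted from seven inhibitor levels.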

HCV replicon = HCV replicon FRET assay; format: cell-based; conditions: Hepatitis C virus, FRET assay, read-out: EC50*
Method in brief: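 HCV replicon cells, with or without Renilla luciferase reporter, incubated with titrated compounds at 37 °C; Alamar blue read for cytotoxicity. NS3 protease activity read from lysates with 20 μM EDANS/DABCYL FRET peptide (340/490 nm, kinetic), or by Dual-Glo luciferase. Background from highest protease-inhibitor wells; EC50 = 50% signal reduction.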

T1 sequence (Q9WMX2 2420-2992): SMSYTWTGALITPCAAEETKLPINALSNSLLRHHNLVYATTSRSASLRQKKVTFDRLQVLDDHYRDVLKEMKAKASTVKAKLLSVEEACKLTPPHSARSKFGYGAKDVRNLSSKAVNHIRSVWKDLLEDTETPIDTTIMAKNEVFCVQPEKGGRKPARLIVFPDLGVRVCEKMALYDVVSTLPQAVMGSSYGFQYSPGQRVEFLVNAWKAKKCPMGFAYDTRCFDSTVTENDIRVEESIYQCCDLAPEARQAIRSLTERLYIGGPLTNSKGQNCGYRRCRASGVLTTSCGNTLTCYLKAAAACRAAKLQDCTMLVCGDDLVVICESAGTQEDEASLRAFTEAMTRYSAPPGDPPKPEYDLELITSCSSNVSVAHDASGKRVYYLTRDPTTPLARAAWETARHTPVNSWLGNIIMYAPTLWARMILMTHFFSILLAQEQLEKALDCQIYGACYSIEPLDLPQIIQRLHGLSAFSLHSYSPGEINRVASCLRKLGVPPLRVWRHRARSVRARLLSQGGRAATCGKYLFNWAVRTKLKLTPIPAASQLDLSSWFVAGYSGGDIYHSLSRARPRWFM

SMILES	IC50 (HCV NS5B; Table 1a) [nM]	EC50 (HCV replicon; Table 1a) [nM]	IC50 (HCV NS5B; Table 1b) [nM]	EC50 (HCV replicon; Table 1b) [nM]
COc1ccc2c(c1)CC(C(=O)N(C)C1CCOCC1)Cn1c-2c(C2CCCCC2)c2ccc(C(=O)NS(=O)(=O)N(C)C)cc21 (stereo not shown)	10 to 1000	30 to 1000	–	–
COc1ccc2c(c1)CC(C(=O)N(C)C1CCOCC1)Cn1c-2c(C2CCCCC2)c2ccc(C(=O)O)cc21 (stereo not shown)	< 20	30 to 1000	–	–
COc1ccc2c(c1)CC(NC(=O)N1CCOC(CNC(C)=O)C1)Cn1c-2c(C2CCCCC2)c2ccc(C(=O)NS(=O)(=O)N(C)C)cc21 (stereo not shown)	< 20	30 to 1000	–	–
COc1ccc2c(c1)C=C(C(=O)N1CCOC(CO)C1)Cn1c-2c(C2CCCCC2)c2ccc(C(=O)NS(=O)(=O)N(C)C)cc21 (stereo not shown)	10 to 1000	30 to 1000	–	–
COc1ccc2c(c1)C=C(C(=O)N1CC(C)CC(O)C1(C)C)Cn1c-2c(C2CCCCC2)c2ccc(C(=O)NS(=O)(=O)N(C)C)cc21 (stereo not shown)	< 20	30 to 1000	–	–
COc1ccc2c(c1)CC(C(=O)NCc1cc(C)nn1C)Cn1c-2c(C2CCCCC2)c2ccc(C(=O)NS(=O)(=O)N(C)C)cc21 (stereo not shown)	10 to 1000	30 to 1000	–	–
COc1ccc2c(c1)CC(C(=O)NCc1cn(C)cn1)Cn1c-2c(C2CCCCC2)c2ccc(C(=O)NS(=O)(=O)N(C)C)cc21 (stereo not shown)	10 to 1000	30 to 1000	–	–
COc1ccc2c(c1)CC(C(=O)N(C)CC(=O)N1CCOCC1)Cn1c-2c(C2CCCCC2)c2ccc(C(=O)NS(=O)(=O)N(C)C)cc21 (stereo not shown)	< 20	30 to 1000	–	–
COC(=O)CCC(=O)CNC(=O)C1=Cc2cc(OC)ccc2-c2c(C3CCCCC3)c3ccc(C(=O)OC)cc3n2C1	10 to 1000	30 to 1000	–	–
COc1ccc2c(c1)CC(NC(=O)N1C[C@@H](C)O[C@@H](C)C1)Cn1c-2c(C2CCCCC2)c2ccc(C(=O)NS(=O)(=O)N(C)C)cc21 (stereo partly shown)	10 to 1000	30 to 1000	–	–
COC(=O)c1ccc2c(C3CCCCC3)c3n(c2c1)CC(C(=O)NC1CCOCC1)=Cc1cc(OC)ccc1-3	10 to 1000	30 to 1000	–	–
COc1ccc2c(c1)C=C(C(=O)N(C)CCN(C)C(C)=O)Cn1c-2c(C2CCCCC2)c2ccc(C(=O)NS(=O)(=O)N(C)C)cc21	10 to 1000	30 to 1000	–	–
COc1ccc2c(c1)C=C(C(=O)N1CC(OC)C1)Cn1c-2c(C2CCCCC2)c2ccc(C(=O)NS(=O)(=O)N(C)C)cc21	< 20	30 to 1000	–	–
COc1ccc2c(c1)C=C(C(=O)N(C)CC(=O)N1CCC1)Cn1c-2c(C2CCCCC2)c2ccc(C(=O)NS(=O)(=O)N(C)C)cc21	10 to 1000	30 to 1000	–	–
CCN(C)C(=O)CN(C)C(=O)C1=Cc2cc(OC)ccc2-c2c(C3CCCCC3)c3ccc(C(=O)NS(=O)(=O)N(C)C)cc3n2C1	10 to 1000	30 to 1000	–	–
COc1ccc2c(c1)C=C(C(=O)N(C)CC(=O)N1CC(OC)C1)Cn1c-2c(C2CCCCC2)c2ccc(C(=O)NS(=O)(=O)N(C)C)cc21	10 to 1000	30 to 1000	–	–
COc1ccc2c(c1)CC(NC(=O)N1C[C@@H](C)N(C(C)=O)[C@@H](C)C1)Cn1c-2c(C2CCCCC2)c2ccc(C(=O)NS(=O)(=O)N(C)C)cc21 (stereo partly shown)	10 to 1000	30 to 1000	–	–
COc1ccc2c(c1)CC(NC(=O)N(C)CC(=O)N1CCOCC1)Cn1c-2c(C2CCCCC2)c2ccc(C(=O)NS(=O)(=O)N(C)C)cc21 (stereo not shown)	10 to 1000	30 to 1000	–	–
COc1ccc2c(c1)CC(NC(=O)N1CCC(N3CCOCC3)CC1)Cn1c-2c(C2CCCCC2)c2ccc(C(=O)NS(=O)(=O)N(C)C)cc21 (stereo not shown)	10 to 1000	30 to 1000	–	–
COc1ccc2c(c1)CC(NC(=O)N1CCOC(CN(C)C)C1)Cn1c-2c(C2CCCCC2)c2ccc(C(=O)NS(=O)(=O)N(C)C)cc21 (stereo not shown)	10 to 1000	30 to 1000	–	–
COc1ccc2c(c1)CC(NC(=O)N1CCOC(CN3CCCC3)C1)Cn1c-2c(C2CCCCC2)c2ccc(C(=O)NS(=O)(=O)N(C)C)cc21 (stereo not shown)	10 to 1000	30 to 1000	–	–
COc1ccc2c(c1)CC(NC(=O)N1CCN(C(N)=O)CC1)Cn1c-2c(C2CCCCC2)c2ccc(C(=O)NS(=O)(=O)N(C)C)cc21 (stereo not shown)	10 to 1000	30 to 1000	–	–
COc1ccc2c(c1)CC(NC(=O)N1CCN(CC(=O)NC(C)C)CC1)Cn1c-2c(C2CCCCC2)c2ccc(C(=O)NS(=O)(=O)N(C)C)cc21 (stereo not shown)	10 to 1000	30 to 1000	–	–
CCN(C(C)=O)C1CCN(C(=O)NC2Cc3cc(OC)ccc3-c3c(C4CCCCC4)c4ccc(C(=O)NS(=O)(=O)N(C)C)cc4n3C2)C1 (stereo not shown)	10 to 1000	30 to 1000	–	–
COc1ccc2c(c1)CC(NC(=O)N1CCS(=O)(=O)CC1)Cn1c-2c(C2CCCCC2)c2ccc(C(=O)NS(=O)(=O)N(C)C)cc21 (stereo not shown)	10 to 1000	30 to 1000	–	–
COc1ccc2c(c1)CC(NC(=O)N1C[C@@H]3C[C@H]1CO3)Cn1c-2c(C2CCCCC2)c2ccc(C(=O)NS(=O)(=O)N(C)C)cc21 (stereo partly shown)	10 to 1000	30 to 1000	–	–
COc1ccc2c(c1)CC(NC(=O)NCCN1CCOCC1)Cn1c-2c(C2CCCCC2)c2ccc(C(=O)NS(=O)(=O)N(C)C)cc21 (stereo not shown)	10 to 1000	30 to 1000	–	–

SMILES	IC50 (HCV NS5B; Table 1a) [nM]	EC50 (HCV replicon; Table 1a) [nM]	IC50 (HCV NS5B; Table 1b) [nM]	EC50 (HCV replicon; Table 1b) [nM]
COc1ccc2c(c1)CC(NC(=O)N1CCC(N3CCCC3)CC1)Cn1c-2c(C2CCCCC2)c2ccc(C(=O)NS(=O)(=O)N(C)C)cc21 (stereo not shown)	10 to 1000	30 to 1000	–	–
COc1ccc2c(c1)CC(NC(=O)N1CCN(S(C)(=O)=O)CC1)Cn1c-2c(C2CCCCC2)c2ccc(C(=O)NS(=O)(=O)N(C)C)cc21 (stereo not shown)	10 to 1000	30 to 1000	–	–
COc1ccc2c(c1)CC(NC(=O)N1CCN(C(C)=O)CC1)Cn1c-2c(C2CCCCC2)c2ccc(C(=O)NS(=O)(=O)N(C)C)cc21 (stereo not shown)	10 to 1000	30 to 1000	–	–
COc1ccc2c(c1)CC(NC(=O)N(C)CC(=O)N(C)C)Cn1c-2c(C2CCCCC2)c2ccc(C(=O)NS(=O)(=O)N(C)C)cc21 (stereo not shown)	10 to 1000	30 to 1000	–	–
COc1ccc2c(c1)C=C(C(=O)N(C)C1CCOCC1)Cn1c-2c(C2CCCCC2)c2ccc(C(=O)NS(=O)(=O)N(C)C)cc21	10 to 1000	> 120	–	–
COc1ccc2c(c1)C=C(C(=O)NCc1nccs1)Cn1c-2c(C2CCCCC2)c2ccc(C(=O)NS(=O)(=O)N(C)C)cc21	10 to 1000	30 to 1000	–	–
COc1ccc2c(c1)C=C(C(=O)N(CC(=O)O)CC(=O)O)Cn1c-2c(C2CCCCC2)c2ccc(C(=O)NS(=O)(=O)N(C)C)cc21	–	–	20 to 1000	> 10000
COc1ccc2c(c1)C=C(C(=O)N(C)[C@H](C(=O)O)C(C)C)Cn1c-2c(C2CCCCC2)c2ccc(C(=O)NS(=O)(=O)N(C)C)cc21	–	–	< 20	30 to 1000
CCN(C)C(=O)NC1Cc2cc(OC)ccc2-c2c(C3CCCCC3)c3ccc(C(=O)NS(=O)(=O)N(C)C)cc3n2C1 (stereo not shown)	–	–	20 to 1000	30 to 1000
COc1ccc2c(c1)CC(NC(=O)N(C)CCN(C)C)Cn1c-2c(C2CCCCC2)c2ccc(C(=O)NS(=O)(=O)N(C)C)cc21 (stereo not shown)	–	–	20 to 1000	30 to 1000
COc1ccc2c(c1)CC(NC(N)=O)Cn1c-2c(C2CCCCC2)c2ccc(C(=O)NS(=O)(=O)N(C)C)cc21 (stereo not shown)	–	–	20 to 1000	30 to 1000
COCCNC(=O)CN(C)C(=O)NC1Cc2cc(OC)ccc2-c2c(C3CCCCC3)c3ccc(C(=O)NS(=O)(=O)N(C)C)cc3n2C1 (stereo not shown)	–	–	20 to 1000	30 to 1000
COc1ccc2c(c1)CC(NC(=O)N(C)CC(=O)NC(C)C)Cn1c-2c(C2CCCCC2)c2ccc(C(=O)NS(=O)(=O)N(C)C)cc21 (stereo not shown)	–	–	20 to 1000	30 to 1000
COc1ccc2c(c1)CC(NC(=O)N(C)CC1CCOCC1)Cn1c-2c(C2CCCCC2)c2ccc(C(=O)NS(=O)(=O)N(C)C)cc21 (stereo not shown)	–	–	20 to 1000	30 to 1000
COc1ccc2c(c1)CC(NC(=O)N(C)CC1CCCCO1)Cn1c-2c(C2CCCCC2)c2ccc(C(=O)NS(=O)(=O)N(C)C)cc21 (stereo not shown)	–	–	20 to 1000	30 to 1000
COc1ccc2c(c1)CC(NC(=O)N(C)CC(N)=O)Cn1c-2c(C2CCCCC2)c2ccc(C(=O)NS(=O)(=O)N(C)C)cc21 (stereo not shown)	–	–	20 to 1000	30 to 1000
COc1ccc2c(c1)CC(NC(=O)N1CCC(C(N)=O)C1)Cn1c-2c(C2CCCCC2)c2ccc(C(=O)NS(=O)(=O)N(C)C)cc21 (stereo not shown)	–	–	20 to 1000	30 to 1000
COc1ccc2c(c1)CC(NC(=O)N(C)CC(=O)NC1CC1)Cn1c-2c(C2CCCCC2)c2ccc(C(=O)NS(=O)(=O)N(C)C)cc21 (stereo not shown)	–	–	20 to 1000	30 to 1000
COc1ccc2c(c1)CC(NC(=O)N1CC(OC)C1)Cn1c-2c(C2CCCCC2)c2ccc(C(=O)NS(=O)(=O)N(C)C)cc21 (stereo not shown)	–	–	20 to 1000	30 to 1000
COc1ccc2c(c1)CC(NC(=O)N(C)CC(=O)N1CCN(C)CC1)Cn1c-2c(C2CCCCC2)c2ccc(C(=O)NS(=O)(=O)N(C)C)cc21 (stereo not shown)	–	–	20 to 1000	30 to 1000
COc1ccc2c(c1)CC(NC(=O)N1CC(O)C1)Cn1c-2c(C2CCCCC2)c2ccc(C(=O)NS(=O)(=O)N(C)C)cc21 (stereo not shown)	–	–	20 to 1000	30 to 1000
COc1ccc2c(c1)CC(NC(=O)N1C[C@@H](C)N(C)[C@@H](C)C1)Cn1c-2c(C2CCCCC2)c2ccc(C(=O)NS(=O)(=O)N(C)C)cc21 (stereo partly shown)	–	–	20 to 1000	30 to 1000
COc1ccc2c(c1)C=C(C(=O)N1CCOC(CF)C1)Cn1c-2c(C2CCCCC2)c2ccc(C(=O)NS(=O)(=O)N(C)C)cc21 (stereo not shown)	–	–	20 to 1000	30 to 1000
COc1cccc2c1C=C(C(=O)N1CCOC(CF)C1)Cn1c-2c(C2CCCCC2)c2ccc(C(=O)NS(=O)(=O)N(C)C)cc21 (stereo not shown)	–	–	20 to 1000	30 to 1000
COc1ccc2c(c1)C=C(C(=O)N1CCN(c3cnccn3)CC1)Cn1c-2c(C2CCCCC2)c2ccc(C(=O)NS(=O)(=O)N(C)C)cc21	–	–	20 to 1000	30 to 1000
COc1ccc2c(c1)CC(C(=O)N1CCN(C(=O)C(C)(C)O)CC1)Cn1c-2c(C2CCCCC2)c2ccc(C(=O)NS(=O)(=O)N(C)C)cc21 (stereo not shown)	–	–	20 to 1000	30 to 1000
